Source: patent US20140178411A1, “COMPOUNDS AND METHODS FOR THE TREATMENT OF CD20 POSITIVE DISEASES” (BIO-THERA SOLUTIONS, LTD., CO., priority 2012, published 2014)

Legend:
tubulin = details: 10 μL added to 100 μL 4 mg/ml tubulin, FIG. 1
Procedure: The effect of 3AA-MDC and related metabolites on the tubulin polymerization in vitro was assessed by HTS-Tubulin Polymerization Assay Kit (BK004P, Cytoskeleton, Inc., USA). According to the instruction of kit, pre-warm the 96-well plate to 37° C. for 30 min prior to starting the assay. At the same time, the spectrophotometer (SpectraMax, Molecular Devices, USA) was set as follow: wavelength, 405 nm; temperature, 37° C.; Kinetic, 31 cycles of 1 reading per minute. Make cold G-PEM buffer (990 μL General Tubulin Buffer+10 μL GTP Stock) and keep it on ice. Prepare 4 mg/ml tubulin, 200 nM L-3AA-MDC (N2′-deacetyl-N2′-(6-maleimido-1-oxo-hexyl)maytansine), or related compounds cys-3AA-MDC, or lys-mcc-MDC, 100 μM Paclitaxel, 100 μM Nocodazole, and 1 μM 206-3AA-MDC (3AA-MDC-antibody conjugate). Add 10 μL G-PEM, 3AA-MDC, Paclitaxel, Nocodazole and 206-3AA-MDC or related metabolites into the wells, and then add 100 μL 4 mg/ml tubulin to each well. Immediately place the plate into the spectrophotometer and start recording using the kinetic setup described above.

[1] = test system: human acute lymphoblastic leukemia line C.E.M.; details: Wolpert-DeFillippes et al. 1975; cited from earlier work

**Q.** Which “effect on tubulin polymerization (in words)” value (tubulin; 200 nM stock, compared with Nocodazole) does the source give for `COc1cc2cc(c1Cl)N(C)C(=O)C[C@H](OC(=O)[C@H](C)N(C)C(=O)CCCCCN1C(=O)C=CC1=O)[C@]1(C)OC1[C@H](C)[C@@H]1C[C@@](O)(NC(=O)O1)[C@H](OC)/C=C/C=C(\C)C2` (stereo partly drawn) [L-3AA-MDC, N2′-deacetyl-N2′-(6-maleimido-1-oxo-hexyl)maytansine] here?
**A.** more significantly inhibited the tubulin polymerization

**Q.** For `COc1cc2cc(c1Cl)N(C)C(=O)C[C@H](OC(=O)[C@H](C)N(C)C(C)=O)[C@]1(C)O[C@H]1[C@H](C)[C@@H]1C[C@@](O)(NC(=O)O1)[C@H](OC)/C=C/C=C(\C)C2` [Maytansine], which “concentration that inhibits C.E.M. line (as low as)” value [1] is on record?
**A.** 10^−7 µg/mL

**Q.** For `COC(=O)Nc1nc2ccc(C(=O)c3cccs3)cc2[nH]1` [Nocodazole], which “relative activity of tubulin polymerization decreased” value (tubulin; 100 μM Nocodazole stock, 37° C., 405 nm) is on record?
**A.** 2.5 fold

**Q.** For `CC(=O)O[C@H]1C(=O)[C@@]2(C)[C@H]([C@H](OC(=O)c3ccccc3)[C@]3(O)C[C@H](OC(=O)[C@H](O)[C@@H](NC(=O)c4ccccc4)c4ccccc4)C(C)=C1C3(C)C)[C@]1(OC(C)=O)CO[C@@H]1C[C@@H]2O` [Paclitaxel], which “relative activity of tubulin polymerization enhanced” value (tubulin; 100 μM Paclitaxel stock, 37° C., 405 nm) is on record?
**A.** about 3 fold
